In ChEMBL document CHEMBL1250443, “Microarray-based method for monitoring yeast overexpression strains reveals small-molecule targets in TOR pathway” (Nat Chem Biol, 2006):

Assays:
[1] = system: Saccharomyces cerevisiae; assay: Increase of GUF1 gene expression in wild-type Saccharomyces cerevisiae transformed with overexpression plasmids by microarray; assay type: functional
[2] = system: Saccharomyces cerevisiae; assay: Increase of FMP38 gene expression in wild-type Saccharomyces cerevisiae transformed with overexpression plasmids by microarray; assay type: functional
[3] = system: Saccharomyces cerevisiae; assay: Increase of HMI1 gene expression in wild-type Saccharomyces cerevisiae transformed with overexpression plasmids by microarray; assay type: functional
[4] = system: Saccharomyces cerevisiae; assay: Increase of YRR1 gene expression in wild-type Saccharomyces cerevisiae transformed with overexpression plasmids by microarray; assay type: functional
[5] = system: Saccharomyces cerevisiae; assay: Increase of YDR514C gene expression in wild-type Saccharomyces cerevisiae transformed with overexpression plasmids by microarray; assay type: functional
[6] = system: Saccharomyces cerevisiae; assay: Increase of SUV3 gene expression in wild-type Saccharomyces cerevisiae transformed with overexpression plasmids by microarray; assay type: functional
[7] = system: Saccharomyces cerevisiae; assay: Increase of PET111 gene expression in wild-type Saccharomyces cerevisiae transformed with overexpression plasmids by microarray; assay type: functional
[8] = system: Saccharomyces cerevisiae; assay: Increase of MDL1 gene expression in wild-type Saccharomyces cerevisiae transformed with overexpression plasmids by microarray; assay type: functional
[9] = system: Saccharomyces cerevisiae; assay: Increase of MRPS28 gene expression in wild-type Saccharomyces cerevisiae transformed with overexpression plasmids by microarray; assay type: functional
[10] = system: Saccharomyces cerevisiae; assay: Increase of MAM1 gene expression in wild-type Saccharomyces cerevisiae transformed with overexpression plasmids by microarray; assay type: functional
[11] = system: Saccharomyces cerevisiae; assay: Decrease of FET4 gene expression in wild-type Saccharomyces cerevisiae transformed with overexpression plasmids by microarray; assay type: functional
[12] = system: Saccharomyces cerevisiae; assay: Decrease of RIM11 gene expression in wild-type Saccharomyces cerevisiae transformed with overexpression plasmids by microarray; assay type: functional
[13] = system: Saccharomyces cerevisiae; assay: Decrease of HOS1 gene expression in wild-type Saccharomyces cerevisiae transformed with overexpression plasmids by microarray; assay type: functional
[14] = system: Saccharomyces cerevisiae; assay: Decrease of YDR222W gene expression in wild-type Saccharomyces cerevisiae transformed with overexpression plasmids by microarray; assay type: functional
[15] = system: Saccharomyces cerevisiae; assay: Decrease of YKR75C gene expression in wild-type Saccharomyces cerevisiae transformed with overexpression plasmids by microarray; assay type: functional
[16] = system: Saccharomyces cerevisiae; assay: Decrease of YJL051W gene expression in wild-type Saccharomyces cerevisiae transformed with overexpression plasmids by microarray; assay type: functional
[17] = system: Saccharomyces cerevisiae; assay: Decrease of SGN1 gene expression in wild-type Saccharomyces cerevisiae transformed with overexpression plasmids by microarray; assay type: functional
[18] = system: Saccharomyces cerevisiae; assay: Decrease of YMD8 gene expression in wild-type Saccharomyces cerevisiae transformed with overexpression plasmids by microarray; assay type: functional
[19] = biological target: T1, Translation factor GUF1, mitochondrial (Saccharomyces cerevisiae S288c, UniProt P46943); assay: Inhibition of yeast Guf1
T1 sequence (P46943 whole entry): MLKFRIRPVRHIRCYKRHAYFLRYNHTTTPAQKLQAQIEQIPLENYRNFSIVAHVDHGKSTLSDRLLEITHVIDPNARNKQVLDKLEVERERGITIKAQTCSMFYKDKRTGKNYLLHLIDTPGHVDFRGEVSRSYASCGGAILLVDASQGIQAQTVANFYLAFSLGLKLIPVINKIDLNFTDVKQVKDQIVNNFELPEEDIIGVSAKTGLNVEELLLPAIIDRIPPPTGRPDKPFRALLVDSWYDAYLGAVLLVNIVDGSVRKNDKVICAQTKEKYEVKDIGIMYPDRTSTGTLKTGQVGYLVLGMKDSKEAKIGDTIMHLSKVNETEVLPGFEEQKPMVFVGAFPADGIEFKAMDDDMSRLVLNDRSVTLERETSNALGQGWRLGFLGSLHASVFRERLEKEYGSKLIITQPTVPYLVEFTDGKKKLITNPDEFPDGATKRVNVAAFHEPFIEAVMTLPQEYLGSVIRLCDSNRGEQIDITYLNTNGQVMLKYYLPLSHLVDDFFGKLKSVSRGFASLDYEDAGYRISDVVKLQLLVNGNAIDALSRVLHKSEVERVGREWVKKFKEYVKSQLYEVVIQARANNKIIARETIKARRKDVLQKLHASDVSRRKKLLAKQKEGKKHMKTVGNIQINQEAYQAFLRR

O=C1C(Nc2ccccc2)=CC(=O)c2ncccc21 was tested, and the “fold change (FC)” value [1] was 5, the “fold change (FC)” value [2] was 3.1 and the “fold change (FC)” value [3] was 2.9. The “fold change (FC)” value [4] was 2.8, the “fold change (FC)” value [5] was 2.7 and the “fold change (FC)” value [6] was 2.4. The “fold change (FC)” value [7] was 2.3, the “fold change (FC)” value [8] was 2.2 and the “fold change (FC)” value [9] was 2.1. For the same compound, the “fold change (FC)” value [10] was 2.1, the “fold change (FC)” value [11] was -4.3 and the “fold change (FC)” value [12] was -3.3. The “fold change (FC)” value [13] was -2.4, the “fold change (FC)” value [14] was -2.4 and the “fold change (FC)” value [15] was -2.1. For the same compound, the “fold change (FC)” value [16] was -2.1, the “fold change (FC)” value [17] was -2.1 and the “fold change (FC)” value [18] was -2. For the same compound, the IC50 [19] was 300 µM.
